Results reported in ChEMBL document CHEMBL5104179, “Discovery and Structural Characterization of Small Molecule Binders of the Human CTLH E3 Ligase Subunit GID4” (J Med Chem, 2022).

Key:
[1] = target: T1, Glucose-induced degradation protein 4 homolog (Homo sapiens) (UniProt Q8IVV7)
T1 sequence (whole entry): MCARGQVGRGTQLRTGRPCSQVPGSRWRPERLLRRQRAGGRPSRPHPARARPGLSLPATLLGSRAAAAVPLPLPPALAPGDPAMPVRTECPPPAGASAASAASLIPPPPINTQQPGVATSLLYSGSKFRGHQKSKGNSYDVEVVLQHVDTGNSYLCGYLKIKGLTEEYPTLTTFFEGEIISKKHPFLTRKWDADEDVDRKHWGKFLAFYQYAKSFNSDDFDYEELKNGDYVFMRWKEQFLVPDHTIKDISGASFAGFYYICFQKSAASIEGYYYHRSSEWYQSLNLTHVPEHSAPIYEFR
Description: Binding affinity to GID4 (124 to 289) (unknown origin) expressed in Escherichia coli BL21(DE3) assessed as change in melting temperature by differential scanning fluorimetry

[2] = target: T1, Glucose-induced degradation protein 4 homolog (Homo sapiens); conditions: HEK293, dose 50.0 µM, time 10.0 min
[3] = target: T2, Glucose-induced degradation protein 4 homolog (Homo sapiens, UniProt Q8IVV7); experiment: Inhibition of GID4 (124 to 289) (unknown origin) expressed in Escherichia coli BL21(DE3) using PGLWKS-FITC peptide by competitive-fluorescence polarization binding assay
T2 sequence (Q8IVV7 whole entry): T1 sequence (whole entry)

SMILES	ΔTm [1] [°C]	other results
COc1cccc(C2NCCc3sccc32)c1 (configuration not stated)	7.6	–
Nc1ccc(C2NCCc3sccc32)cc1 (configuration not stated)	7.1	–
CC1CN=C(Nc2ccc(N(C)C)cc2)S1 (configuration not stated)	3.1	–
FC(F)(F)c1ccccc1C1NCCc2sccc21 (configuration not stated)	5.3	–
Nc1ccccc1C1NCCc2sccc21 (configuration not stated)	2.8	–
CC(=O)c1ccc(NC2=NCC(C)S2)cc1 (configuration not stated)	-0.1	–
Oc1cccc(C2NCCc3sccc32)c1 (configuration not stated)	6.1	–
CC1(C)CN=C(Nc2ccc(F)cc2)S1	1.2	–
C[C@H](N)c1ccc(Cl)cc1	> 1	–
O=C(O)c1ccc(-c2ccc(Cl)cc2)o1	> 1	–
CNC(=O)C1c2ccccc2CN1C(=O)[C@@H](Cc1c(C)[nH]c2ccccc12)NC(=O)CNCCOc1ccc(C)cc1 (some centres not stated)	0.1	–
COc1ccc2c(c1)CCCC2c1ccccc1 (configuration not stated)	6.4	–
CC(=O)Oc1ccc(C2NCCc3sccc32)cc1 (configuration not stated)	3.3	–
O=[N+]([O-])c1cccc(C2NCCc3sccc32)c1 (configuration not stated)	4.9	–
Fc1ccc(C2NCCc3sccc32)cc1 (configuration not stated)	3.8	–
c1ccc(C2NCCc3sccc32)cc1 (configuration not stated)	7.9	–
CC1CN=C(Nc2ccc(F)cc2F)S1 (configuration not stated)	0.7	–
CC1CN=C(Nc2ccc(F)cc2)S1 (racemic)	3.2	–
Clc1ccccc1C1NCCc2sccc21 (configuration not stated)	5	–
COc1ccc(C2NCCc3sccc32)cc1 (racemic)	4.5	–
Brc1ccc(C2NCCc3sccc32)cc1 (configuration not stated)	4.2	–

SMILES	ΔTm [1] [°C]	other results
CNC(=O)[C@H](CC1CCCCC1)NC(=O)[C@@H](NC(=O)[C@H]1NC[C@@H]1c1ccccc1)c1ccsc1	4.5	–
CNC(=O)[C@H](CCc1ccccc1)NC(=O)[C@H](NC(=O)CNCc1ccc(OC)cc1OC)c1cccs1	16	ΔTm [2]: 3.8 °C
Clc1ccc(C2NCCc3sccc32)cc1 (configuration not stated)	5.1	–
O=[N+]([O-])c1ccccc1C1NCCc2sccc21 (configuration not stated)	4.1	–
NCc1ccccc1Oc1ccccc1	> 1	–
FC(F)(F)c1ccc(C2NCCc3sccc32)cc1 (configuration not stated)	2.7	–
N#Cc1cccc(C2NCCc3sccc32)c1 (configuration not stated)	3.9	–
CC1SC(Nc2ccc(F)cc2)=NC1=O (configuration not stated)	0.6	–
COc1ccc(NC2=NCC(C)S2)cc1 (configuration not stated)	3.1	–
CCOc1ccc(NC2=NCC(C)S2)cc1 (configuration not stated)	0.8	–
Clc1ccc(CNCc2cccnc2)cc1	> 1	–
CC1CN=C(Nc2cccc(F)c2)S1 (configuration not stated)	–	IC50 [3]: 264 µM
COc1cccc2c1CCNC2c1ccccc1 (configuration not stated)	4.4	–
CC1CSC(Nc2cccc3ccccc23)=N1 (configuration not stated)	2.5	–
c1ccc(NC2=NCCS2)cc1	2.5	–
c1cc2c(s1)CCNC2	1.9	–
N#Cc1ccc(C2NCCc3sccc32)cc1 (configuration not stated)	2	–
CC(=O)c1cccc(NC2=NCC(C)S2)c1 (configuration not stated)	3.2	–
OCc1ccc(C2NCCc3sccc32)cc1 (configuration not stated)	4.4	–
c1cncc(C2NCCc3sccc32)c1 (configuration not stated)	2.5	–
